From patent US20260226006A1, “INDOLE COMPOUND, PREPARATION METHOD THEREFOR AND USE THEREOF” (SUZHOU MERNA THERAPEUTICS CO. LTD, priority 2023, published 2026)

Test system: skin of hind limb toes of mice
Assay: Chemotherapeutic drug-induced mouse models with hand-foot syndrome (Example 23)
Format: in vivo, ICR mice
Details: compound 2b 3% ointment topical or nicotinamide 100 mg/kg oral; for expression level of cytokine IL-8 in skin tissues of hind limb toes: capecitabine model; for thickening of the epidermal layer and the stratum corneum in the skin tissues (pathological staining) / swelling of the toes caused by the modeling drugs: capecitabine or docetaxel model; for swelling of the toes caused by the modeling drugs: once daily 16 days; for expression level of cytokine IL-6 in skin tissues of hind limb toes: docetaxel model
Source text: After adaptive feeding for 7 days, SPF-grade ICR mice (male, 5-6 weeks old, with a body weight of approximately 35 g) were randomly divided into groups, including a blank control group (6 mice), a capecitabine modeling group (6 mice), a docetaxel modeling group (6 mice), a capecitabine+compound 2b group (6 mice), a docetaxel+compound 2b group (6 mice), a capecitabine+nicotinamide group (6 mice), and a docetaxel+nicotinamide group (6 mice). The groups were respectively administered corresponding modeling drugs by oral gavage (capecitabine at 200 mg/kg and docetaxel at 25 mg/kg) once daily, and the blank control group was administered an equivalent volume of normal saline. After administration with the chemotherapeutic drugs for 2 weeks, the compound ointments (at a compound content of 3%) used in Example 22 were respectively applied topically in the groups, or nicotinamide was orally administered (100 mg/kg) once daily continuously for 16 days.
Measurement of the degree of swelling of toes: The degree of swelling of hind limb toes of the mice was measured using a toe swelling tester (KW-7C, Nanjing Calvin Biotechnology Co., Ltd.) before administration with the modeling drugs, after administration with the modeling drugs for 2 weeks, and before sacrifice, respectively. Before measurement, ankle joints of hind paws of the mice were marked at same positions before administration, after administration for 2 weeks, and before sacrifice. During measurement, water was properly located at the same level as the marked positions, and numerical values were recorded after becoming stable.
Pathological staining of skin tissues: Skin tissue samples were selected from hind limb toes of the mice and placed in 4% paraformaldehyde for fixation at room temperature for 4 hours. Then, the tissues were taken out and rinsed with running water for several hours. The samples were subjected to dehydration treatment with 70%, 80%, and 90% ethanol solutions, followed by treatment with a mixed solution of equal amounts of absolute alcohol and xylene for 15 minutes, and then permeabilized twice with a xylene solution for 15 minutes each time until the samples became transparent. The samples were placed in a mixture of half xylene and half paraffin for soaking for 15 minutes, and then, paraffin I and paraffin II were added for wax penetration for one hour, respectively. After embedding with paraffin, the samples were sectioned, baked, dewaxed, and hydrated. Then, the hydrated sections were placed in a hematoxylin solution (ZSGB-BIO, article No. 23041001) for staining for 3 minutes, and a differentiation solution of hydrochloric acid in ethanol was added for differentiation for 15 seconds. After rinsing with water, a Scott bluing solution (Servicebio, article No. 20230801) was added for bluing for 15 seconds. After rinsing with running water, the sections were stained with an eosin solution (Solarbio, article No. 33535) for 3 minutes, rinsed with running water, dehydrated, permeabilized, sealed, and inspected under a microscope.
Immunohistochemical staining: After baking, dewaxing, and hydration, paraffin sections of skin tissues of hind limb toes of the mice were subjected to antigen retrieval using a 0.2 M citric acid buffer solution (containing 1.534 g of citric acid, 3.1 g of sodium citrate, and 100 mL of distilled water, pH 4.7). Endogenous […] was removed using 3% hydrogen peroxide (Shandong Annjet High-Tech Disinfection Technology Co., Ltd., article No. 20290902), and the sections were incubated at room temperature for 10 minutes and then fully rinsed with a PBS buffer solution (containing 8 g of NaCl, 0.2 g of KCl, 1.44 g of Na2HPO4, and 1 M HCl, pH 7.4). The sections were permeabilized with 0.5% Triron-X-100 (AmyJet Scientific, article No. A-CSH436-100 mL), respectively permeabilized with mouse anti-IL-1β and rabbit IL-8 for 10 minutes, and not permeabilized with rabbit anti-IL-6. […]

Row | SMILES | expression level of cytokine IL-8 in skin tissues of hind limb toes | thickening of the epidermal layer and the stratum corneum in the skin tissues (pathological staining) | swelling of the toes caused by the modeling drugs | expression level of cytokine IL-6 in skin tissues of hind limb toes
1 | NC(=O)[C@H]1CCCc2c1[nH]c1ccc(Cl)cc21 [Compound 2b, (S)-6-chloro-2,3,4,9-tetrahydro-1H-carbazole-1-carboxamide] | significantly decrease | effectively alleviate | significantly alleviate | significantly decrease
2 | NC(=O)c1cccnc1 [Nicotinamide, nicotinamide] | does not have a significant impact | mildly alleviates | not observed that oral administration of the nicotinamide at 100 mg/kg significantly alleviates the swelling | does not have a significant impact
